Test results from patent US12121565B2, “Methods of treatment of specific cancers with NLRP3 inhibitors and anti-PD1/PD-L1 antibodies” (Duke University, priority 2019, dated 2024).

Key:
[1] = tested on: OT-1 CD8+ T cell:BRAFV600E OVA melanoma coculture; test: Coculture of OT-1 CD8+ T cells with OVA-expressing melanoma cells followed by Western blot; assay type: cell-based, mouse; details: increasing concentrations of NLRP3 inhibitor
Protocol: OT-1 CD8 cell activation was performed by incubating isolated splenocytes of OT-1 transgenic mice with IL-2 (100 U/ml) and SIINFEKL peptide (1 μg/ml, New England Peptide, BP10-915) for 3 days followed by magnetic bead CD8 purification according to the manufacturer's instructions (Miltenyi biotec, 130-104-075). Activated OT-1 CD8 cells were incubated with Braf^V600EPten^−/−-OVA cells and treated with anti-PD1 ab (1 μg/ml) for 72 hrs at a tumor cell:CD8^+ T cell ratio of 1:5. In separate experiments, Braf^V600EPten^−/− cells were treated with increasing concentrations of Dacarbazine (10 μmol-400 μmol).
Tumor tissue or cells were homogenized in NP40 lysis buffer (Sigma-Aldrich) supplemented with complete protease inhibitor and phosphatase inhibitor (Roche). Cells were lysed in Laemmli sample buffer after treatment and subjected to SDS-polyacrylamide gel electrophoresis. After transferring onto PVDF membranes (Bio-Rad), monoclonal and polyclonal primary antibodies and appropriate HRP-conjugated secondary antibodies were utilized for blotting. […]

[2] = tested on: syngeneic BRAFV600E PTEN−/− melanomas; test: Syngeneic transplant tumor study: tumor growth, flow cytometry, Western blot, ELISA, qRT-PCR; assay type: in vivo, mouse
Protocol: B6.Cg-Braf^tm1MmcmPten^tm1Hwu Tg(Tyr-cre/ERT2 H-2^b)13Bos/BosJ transgenic mice were subdermally injected with 4-Hydroxytomoxifen (4-HT) (Sigma, H6278-50MG CCF, 38.75 μg/mouse) to induce primary melanoma development at the base of the tail. Mice were randomly assigned to treatment cohorts once tumor volumes reached 64 mm^3 (19, 30, 50). Depending on the experiment, mice were treated with the following agents: CXCR2 inhibitor (AZD5069, AstraZeneca) at 100 mg/kg per os (po) twice daily, NLRP3 inhibitor (MCC950) 10 mg/kg i.p every other day, anti-PD1 ab (BioXCell) or rat IgG2a isotype control (BioXCell) at 200 μg by i.p. injection every 3 days, Dacarbazine (50 mg/kg or 75 mg/kg, Sigma-Aldrich, D2390) by i.p. injection once every other day. Melanoma growth was monitored by orthogonal caliper measurements every 3 days.
Braf^V600EPten^−/−, Braf^V600EPten^−/−-NTC, Braf^V600EPten^−/−-Wnt5a^KD, Braf^V600EPten^−/−-CXCL5^KD, Braf^V600EPten^−/−-PDL1^KD, and Braf^V600EPten^−/−-NLRP3^KD cell lines (0.5×10^5-1×10^5 cells) were implanted by subcutaneous injection into the base of the tail of syngeneic C57BL/6 mice. Tumor growth was monitored by caliper measurement every 3 days and treatment was initiated when tumor volumes reached 64 mm^3. Tumor volume was calculated according to the formula: cm^3=[(length (cm)×(width (cm))^2]/2.
One million cells were stained with 1 μg per million cells of each fluorochrome conjugated antibodies or commercially available dyes according to the standard protocols and analyzed using a FACSCanto II or LSRII (Becton Dickinson). Cells were stained with Fc receptor blocking antibodies followed by a live/dead discriminator (CellTrace Violet, ThermoFisher, C34571), then by conjugated antibodies for 30 min at 4° C. Cell number was calculated by hemocytometer. Flow cytometry data was analyzed using Flowjo software v10.3.
Tumor tissue or cells were homogenized in NP40 lysis buffer (Sigma-Aldrich) supplemented with complete protease inhibitor and phosphatase inhibitor (Roche). Cells were lysed in Laemmli sample buffer after treatment and subjected to SDS-polyacrylamide gel electrophoresis. After transferring onto PVDF membranes (Bio-Rad), monoclonal and polyclonal primary antibodies and appropriate HRP-conjugated secondary antibodies were utilized for blotting. For the immunoprecipitation assays, cells were lysed with TBS buffer (50 mM Tris-HCl (pH 7.4), 150 mM NaCl) containing 0.5% Triton X-100, EDTA-free protease inhibitor cocktail and phosphatase inhibitor cocktail, precleared with protein A/G beads, and then incubated with 1 μg of appropriate antibodies or isotype control IgG on a rotator overnight at 4° C. then incubated with protein A/G-agarose at 4° C. for 1 hour. After 5 washes with TBS buffer, immunoprecipitated complexes were eluted in sample buffer by boiling and subjected to immunoblot analysis. Immunoblots were visualized by chemiluminescence substrate (ThermoFisher) and imaged by a ChemiDoc XRSplus system (BioRad). For the ASC polymerization assay, cells were lysed with TBS buffer containing 0.5% Triton X-100, EDTA-free protease inhibitor cocktail and phosphatase inhibitor cocktail. The lysates were centrifuged at 4,000 g at 4° C. for 15 min. For the detection of ASC oligomerization, the Triton-insoluble pellets were washed twice with TBS buffer and then resuspended in 500 μl TBS buffer. The resuspended pellets were crosslinked for 30 min at room temperature with 2 mM Disuccinimidyl suberate (DSS) (Thermo Fisher Scientific, 21655) and then centrifuged for 15 min at 6,000 g. The pellets were dissolved in SDS sample buffer.
Total RNA was isolated by RNeasy Plus Mini Kit (Qiagen, 74134). RNA (1000 ng) was used in cDNA Synthesis (iScript Reverse Transcription Supermix, BioRad, 1708841). Data analysis utilized the PrimePCR Analysis Software (BioRad). […]

[3] = combined anti-PD-1 Ab and NLRP3 inhibitor

## CC(C)(O)c1coc(S(=O)(=O)NC(=O)Nc2c3c(cc4c2CCC4)CCC3)c1 [MCC950, N-[[(1,2,3,5,6,7-hexahydro-s-indacen-4-yl)amino]carbonyl]-4-(1-hydroxy-1-methylethyl)-2-furansulfonamide]
[1]
  CD8+ T cell-mediated induction of HSP70 release: block
[2]; NLRP3 inhibition combined with anti-PD-1 Ab (200 μg i.p. every 3 days)
  PMN-MDSC recruitment in response to anti-PD-1 Ab therapy: diminished
[2]; NLRP3 inhibitor MCC950 combined with anti-PD-1 Ab
  levels of tumor-infiltrating CD8+ T cells: enhanced
[2]; NLRP3 inhibitor MCC950 combined with anti-PD-1 Ab, beyond what was observed with anti-PD-1 Ab monotherapy
  tumor progression in vivo: suppressed
[2]; combined anti-PD-1 Ab and NLRP3 inhibition
  HSP70 release (plasma ELISA): suppressed
[2]; [3]
  Cxcl5 levels (tumor qRT-PCR): suppressed
  Wnt5a expression (whole-tissue Western blot): suppressed
  caspase-1 cleavage (whole-tissue Western blot): suppressed
  expression of the cytolytic T cell marker Gzmb (tumor qRT-PCR): enhanced
